In patent publication US20110009429A1, “HETEROCYCLIC COMPOUNDS AS INHIBITORS OF CXCR2” (priority 2008, published 2011):

Target: T1, human CXCR2 receptor (Homo sapiens, UniProt P25025)
T1 construct: purchased Biosignal Packard Inc; host or cells: CHO-K1 membranes
T1 sequence (P25025 1-360): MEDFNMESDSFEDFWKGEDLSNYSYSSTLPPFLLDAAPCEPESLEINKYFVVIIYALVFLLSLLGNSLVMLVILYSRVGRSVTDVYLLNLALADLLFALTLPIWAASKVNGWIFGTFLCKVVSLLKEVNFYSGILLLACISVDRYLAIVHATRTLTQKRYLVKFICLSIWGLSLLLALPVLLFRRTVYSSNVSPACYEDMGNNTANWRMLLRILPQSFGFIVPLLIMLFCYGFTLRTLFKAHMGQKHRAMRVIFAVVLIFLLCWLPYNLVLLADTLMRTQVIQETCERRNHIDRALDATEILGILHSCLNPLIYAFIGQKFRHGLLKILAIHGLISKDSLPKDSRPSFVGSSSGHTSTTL
Assay: [35S]-GTPγS binding assay for human CXCR2 receptor using SPA technology
Format: biochemical
Settings: CHO-K1 membranes expressing human CXCR2 receptors; 100 nM IL-8 stimulated [35S]GTPγS binding; read-out: IC50 values in the [35S]-GPTγS binding assay
Excerpt: [^35S]-GTPγS Binding Assay for Human CXCR2 Receptor Using SPA Technology
[^35S]-GTPγS (with specific activity 1082 Ci/mmol) and wheat germ agglutinin poly vinyl toluene scintillation proximity beads are purchased from Amersham Pharmacia Biotech. The Chinese hamster ovary cell (CHO-K1) membranes expressing human CXCR2 receptors are purchased from Biosignal Packard Inc. All other chemicals are of analytical grade. White non-binding surface 96 well Optiplate™ microplates are obtained from Packard. Recombinant human IL-8 is synthesised, cloned and expressed in Escherichia coli as described previously (Lindley I, et al., Proc. Natl. Acad. Sci., 1988, 85(23):9199). The assay is performed in duplicate in 96 well Optiplate™ microplate in a final volume of 250 μl per well. Compounds are diluted in DMSO (0.5% final concentration) and incubated in 20 mM HEPES buffer pH 7.4 containing 10 mM MgCl2, 100 mM NaCl, 1 mM EDTA plus 100 nM IL-8, 50 μM GDP and 500 pM [^35S]GTPγS per well. SPA beads (1 mg/well final concentration) were pre-mixed with the membranes (10 μg/well final concentration) in assay buffer: 20 mM HEPES buffer pH 7.4 containing 10 mM MgCl2, 100 mM NaCl, 1 mM EDTA. The bead membrane mixture is added to each well, plates are sealed and incubated at room temperature for 60 minutes. The plate is centrifuged and read on Packard TopCount™ scintillation counter, program [^35S dpm] for 1 min/well. Data are expressed as the % response to 100 nM IL-8 minus basal.

Structure (SMILES) | IC50 [µM]
Oc1cc(COc2cccc(F)c2F)nc2cc(-c3ccco3)nn12 [Example 22, 5-(2,3-Difluoro-phenoxymethyl)-2-furan-2-yl-pyrazolo[1,5-a]pyrimidin-7-ol] | 1.74
Oc1cc(CCc2cccc(F)c2F)nc2cc(-c3ccco3)nn12 [Example 7, 5-[2-(2,3-Difluoro-phenyl)-ethyl]-2-furan-2-yl-pyrazolo[1,5-a]pyrimidin-7-ol] | 0.22
Oc1cc(CCc2ccccc2Cl)nc2cc(Cc3ccccc3)nn12 [Example 4, 2-Benzyl-5-[2-(2-chloro-phenyl)-ethyl]-pyrazolo[1,5-a]pyrimidin-7-ol] | 0.66
Cc1cc2nc(COc3ccccc3Cl)cc(O)n2n1 [Example 10, 5-(2-Chloro-phenoxymethyl)-2-methyl-pyrazolo[1,5-a]pyrimidin-7-ol] | 4.89
Cc1cc2nc(CCc3ccccc3F)cc(O)n2n1 [Example 1, 5-[2-(2-Fluoro-phenyl)-ethyl]-2-methyl-pyrazolo[1,5-a]pyrimidin-7-ol] | 2.97

More lines, in order of falling IC50, values ahead:

IC50 [µM] | Structure (SMILES)
3.83 | Oc1cc(COc2c(F)cccc2F)nc2cc(-c3ccco3)nn12 [Example 14, 5-(2,6-Difluoro-phenoxymethyl)-2-furan-2-yl-pyrazolo[1,5-a]pyrimidin-7-ol]
1.77 | Oc1cc(COc2ccccc2Cl)nc2cc(-c3ccco3)nn12 [Example 23, 5-(2-Chloro-phenoxymethyl)-2-furan-2-yl-pyrazolo[1,5-a]pyrimidin-7-ol]
0.99 | Oc1cc(COc2cccnc2Cl)nc2cc(-c3ccco3)nn12 [Example 17, 5-(2-Chloro-pyridin-3-yloxymethyl)-2-furan-2-yl-pyrazolo[1,5-a]pyrimidin-7-ol]
